Results taken from patent publication EP0837071A1, “Tripeptide antithrombotic agents” (ELI LILLY AND COMPANY, priority 1990, dated 1992).
Where a name gives a salt, the structure may show the parent alone. Read-outs that look alike come from different tables or passages of the source. Square brackets hold non-standard residues; d marks the D form. Peptide text beside a SMILES is read from it. * marks the point of attachment. dPhg = N[C@@H](C(=O)O)c1ccccc1; Boc = CC(C)(C)OC(=O)*

How the values were obtained:
plasma [1] = experiment: Plasma coagulation assay: activated partial thromboplastin time (APTT); format: biochemical; conditions: Actin (Dade), CaCl2
Experimental: (§1) The numerical values in the table are the concentrations of the test compounds (ng/ml) required to prolong coagulation by 2-fold in the three tests. The thrombin time evaluation was carried out in plasma and separately determined in a buffer system at […].
(§2) The data presented in Table 2 were obtained using a CoaScreener instrument from Tecan, Inc. in the assay protocols listed below. Prothrombin Time: 50 µl plasma 50 µl saline 7 µl test solution 50 µl thromboplastin (Dade) Thrombin Time: 50 µl plasma 50 µl saline 7 µl test compound 50 µl bovine thrombin (2 NIH unit/ml) In the Thrombin Time determined in pH 7.4 buffer fibrinogen was used instead of plasma. APTT: 50 µl plasma 50 µl Actin (Dade) 7 µl test solution 50 µl CaCl2 (0.01M).

bovine thrombin [2] = molecular target: T1, bovine thrombin (Bos taurus, UniProt P00735); experiment: Thrombin time in buffer (fibrinogen instead of plasma); format: biochemical; conditions: for Buffer (pH 7.5) Thrombin Time: concentration of test compounds required to prolong coagulation by 2-fold: buffer pH 7.5, fibrinogen instead of plasma
T1 construct: 50 µl bovine thrombin (2 NIH unit/ml)
Experimental: as §1, §2

plasma [3] = experiment: Plasma coagulation assay: prothrombin time; format: biochemical; conditions: thromboplastin (Dade)
Experimental: as §1, §2

[4] = test system: Arterial Thrombosis in the Rat; experiment: FeCl3-induced arterial thrombosis in the carotid artery of the rat; format: in vivo; conditions: infusion from 15 min before to 60 min after FeCl3 application, NA = Not active at 4 mg/kg/h or at 7 mg/kg/h, the highest doses tested
Experimental: The antithrombotic activity of representative compounds of the invention was determined in in vivo tests carried out in the rat. The test employed induced arterial thrombosis in the carotid artery of the rat and measured the infusion dose of test compound required to maintain blood flow for fifty minutes past the time of occlusion. The test was performed as follows.
Arterial thrombosis was induced in the rat by injury of the carotid artery. Topical application of a ferric chloride solution was used to injure the vessel. […] Animals were laid on a water blanket in which the circulated water was maintained at 37° C. The carotid artery was approached through a midline cervical incision. Careful blunt dissection was used to expose and isolate the vessel from the carotid sheath. A silk suture was pulled underneath the artery to lift the vessel to provide clearance to insert a thermocouple underneath it. […] The discs were cut to equal size using sharpened stainless steel tubing (3 mm i.d.) chucked in a drill press. A saturated disc was placed on each carotid artery above the thermocouple. The time between FeCl3 application and the time at which temperature decreased abruptly was recorded as time to occlusion (TTO) of the vessel. The average time required for both vessels to occlude was used to represent TTO for each animal.
Test compounds were dissolved in isotonic saline. A syringe pump was used to infuse drug solutions starting 15 min before FeCl3 application and continuing for 60 min after FeCl3 application. Dose-response curves were plotted to determine the relationship between the log10 of the infused doses and the TTO of the injured arteries.
The association between vessel occlusion and the abrupt temperature decrease was established by simultaneously recording the temperature and blood flow on the same recorder. A pulsed Doppler flow probe was placed around the carotid artery proximal to the thermocouple. […] Results were reported as percent change from initial baseline values (6 min before occlusion). The time at which vessel temperature decreased rapidly was arbitrarily established as zero and pre- and post-occlusion temperature and flow values were referenced from that point.

thrombin = molecular target: T2, thrombin (Bos taurus, UniProt P00735); experiment: Inhibition of thrombin amidase activity (chromogenic substrate N-benzoyl-D-phenylalanyl-L-valyl-L-arginyl-p-nitroanilide); format: biochemical
T2 construct: purchased
Experimental: The data in the table were obtained in an assay in which thrombin hydrolyzes the chromogenic substrate, N-benzoyl-D-phenylalanyl-L-valyl-L-arginyl-p-nitroanilide.
The assay was carried out in 50 µl buffer (0.03M Tris, 0.15M NaCl, pH 7.4) with 25 µl of thrombin solution (0.21 mg/ml of thrombostat powder in 0.06 M Tris, 0.3M NaCl, pH 7.4) and 150 µl of an aqueous solution of the chromogenic substrate at a concentration of 0.25 mg/ml. Solutions of test compound (25 µl) at various concentrations were added. […] Standard curves were constructed by plotting free thrombin concentration against hydrolysis rate. […] The amount of free inhibitor in each assay was calculated by subtracting the number of moles of bound thrombin from the number of moles of added inhibitor (test compound).
The Kass value is the hypothetical equilibrium constant for the reaction between thrombin and the test compouhnd (I). Thrombin + I ⇄ Thrombin - I [formula] Kass =([Thrombin I])/([ (Thrombin) x (I) ]) [formula]
Kass was calculated for a range of concentrations of test compounds and the mean value is reported in units of liter per mole.

bovine thrombin [5] = molecular target: T1, bovine thrombin; experiment: Plasma coagulation assay: thrombin time; format: biochemical; conditions: for Thrombin Time: concentration of test compounds required to prolong coagulation by 2-fold: plasma, bovine thrombin (2 NIH unit/ml)
Experimental: as §1, §2

Compound | APTT: concentration of test compounds required to prolong coagulation by 2-fold (plasma [1]) [ng/mL] | Buffer (pH 7.5) Thrombin Time: concentration of test compounds required to prolong coagulation by 2-fold (bovine thrombin [2]) [ng/ml] | Prothrombin Time: concentration of test compounds required to prolong coagulation by 2-fold (plasma [3]) [ng/mL] | ED50 (infusion dose required to maintain blood flow for 50 min) [4] [mg/kg/h] | Kd (thrombin) [nM] | Thrombin Time: concentration of test compounds required to prolong coagulation by 2-fold (bovine thrombin [5]) [ng/mL] | Kd (thrombin; apparent equilibrium (association) constant, mean over a range of concentrations, pH 7.4, acetate salts unless indicated otherwise, read-out: Thrombin Amidase Kass (converted)) [nM] | EC (2-fold clotting time) (bovine thrombin [2]; pH 7.5, read-out: Buffer (pH 7.5) Thrombin Time: concentration of test compounds required to prolong coagulation by 2-fold) [µg/mL] | EC (2-fold clotting time) (bovine thrombin [5]; read-out: Thrombin Time: concentration of test compounds required to prolong coagulation by 2-fold) [µg/mL]
CC(C)(C)OC(=O)N[C@@H](C(=O)N1CCC[C@H]1C(=O)N[C@H](C=O)CCCNC(=N)N)c1cccc2ccccc12 [N-Boc-D-1-naphthylglycyl, N-Boc-D-1-naphthylglycyl-Pro-Arg-H diacetate] | 3100 | 105 | 1225 | 6.4 | 19.2 | 230 |  |  | 
CC(C)(C)OC(=O)NC(C(=O)N1CCC[C@H]1C(=O)N[C@H](C=O)CCCNC(=N)N)c1cccc2ccccc12 (mixture of isomers) [N-Boc-DL-1-naphthylglycyl] | 2272 | 112 | 1136 | 5.5 |  | 320 | 55.2 |  | 
CC(C)(C)OC(=O)N[C@@H](C(=O)N1CCC[C@H]1C(=O)N[C@H](C=O)CCCNC(=N)N)c1ccccc1 [N-Boc-D-phenylglycyl, N-(t-Butyloxycarbonyl)-D-phenylglycyl-L-Prolyl-L-Arginine aldehyde (Boc-D-Phg-Pro-Arg-H) diacetate salt] (Boc-[dPhg]-Pro-Arg-aldehyde) | 1169 |  | 667 | 2.9 |  |  |  | 0.118 | 0.11
